Measurements from US4081531A, “Antibiotic mimosamycin” (priority 1975, dated 1978).

What was measured:
gram-positive bacteria = assay: Antibacterial activity against gram-positive bacteria; format: cell-based; conditions: chlorocarcins, summary of Table 5
gram-negative bacteria = assay: Antibacterial activity against gram-negative bacteria; format: cell-based; conditions: chlorocarcins, summary of Table 5
[1] = Tolerability in mice, intravenous injection; format: in vivo; conditions: mice
Experimental: Remarks: Nutrient agar, 37° C, 48 hours for m. smegmatis. Sauton's liquid medium, 37° C, 4 weeks for other 3 strains. The strains SMR and Matsudo resistant to streptomycin at 1000 μg/ml or higher. Mice (18 - 20 g.) tolerated intravenous injection of 50 mg./kg. of mimosamycin.
(A) and 250 mg./kg.(B and C), respectively.

Solubility = format: physicochemical
[2] = tested on: Staphylococcus aureus 209 P; assay: Antimicrobial spectrum (MIC); format: cell-based; conditions: 1% glucose nutrient agar, 37° C, 24 or 48 hours
[3] = tested on: Staphylococcus aureus Smith; assay: Antimicrobial spectrum (MIC); format: cell-based; conditions: 1% glucose nutrient agar, 37° C, 24 or 48 hours
Staphylococcus albus = assay: Antimicrobial spectrum (MIC); format: cell-based; conditions: 1% glucose nutrient agar, 37° C, 24 or 48 hours
Staphylococcus citreus = assay: Antimicrobial spectrum (MIC); format: cell-based; conditions: 1% glucose nutrient agar, 37° C, 24 or 48 hours
[4] = tested on: Streptococcus hemolyticus Coock; assay: Antimicrobial spectrum (MIC); format: cell-based; conditions: blood agar, 37° C, 24 or 48 hours
[5] = tested on: Streptococcus hemolyticus 090R; assay: Antimicrobial spectrum (MIC); format: cell-based; conditions: blood agar, 37° C, 24 or 48 hours
Streptococcus salivarius = assay: Antimicrobial spectrum (MIC); format: cell-based; conditions: 1% glucose nutrient agar, 37° C, 24 or 48 hours
Streptococcus faecalis = assay: Antimicrobial spectrum (MIC); format: cell-based; conditions: 1% glucose nutrient agar, 37° C, 24 or 48 hours
[6] = tested on: Bacillus subtilis PCI 219; assay: Antimicrobial spectrum (MIC); format: cell-based; conditions: 1% glucose nutrient agar, 37° C, 24 or 48 hours
Bacillus cereus = assay: Antimicrobial spectrum (MIC); format: cell-based; conditions: 1% glucose nutrient agar, 37° C, 24 or 48 hours
[7] = tested on: Corynebacterium diphtheriae; assay: Antimicrobial spectrum (MIC); format: cell-based; conditions: 1% glucose nutrient agar, 37° C, 24 or 48 hours
Corynebacterium xerosis = assay: Antimicrobial spectrum (MIC); format: cell-based; conditions: 1% glucose nutrient agar, 37° C, 24 or 48 hours
Lactobacillus arabinosus = assay: Antimicrobial spectrum (MIC); format: cell-based; conditions: 1% glucose nutrient agar, 37° C, 24 or 48 hours
Nocardia asteoides = assay: Antimicrobial spectrum (MIC); format: cell-based; conditions: 37° C, 24 or 48 hours
[8] = tested on: Mycobacterium smegmatis ATCC 607; assay: Antimicrobial spectrum (MIC); format: cell-based; conditions: 3% glycerin nutrient agar, 37° C, 24 or 48 hours
Mycobacterium phlei = assay: Antimicrobial spectrum (MIC); format: cell-based; conditions: 3% glycerin nutrient agar, 37° C, 24 or 48 hours
Mycobacterium avium = assay: Antimicrobial spectrum (MIC); format: cell-based; conditions: 3% glycerin nutrient agar, 37° C, 24 or 48 hours
Escherichia coli = assay: Antimicrobial spectrum (MIC); format: cell-based; conditions: 1% glucose nutrient agar, 37° C, 24 or 48 hours
Shigella dysenteriae = assay: Antimicrobial spectrum (MIC); format: cell-based; conditions: 1% glucose nutrient agar, 37° C, 24 or 48 hours
Salmonella typhimurium = assay: Antimicrobial spectrum (MIC); format: cell-based; conditions: 1% glucose nutrient agar, 37° C, 24 or 48 hours
Klebsiella pneumonaie = assay: Antimicrobial spectrum (MIC); format: cell-based; conditions: 1% glucose nutrient agar, 37° C, 24 or 48 hours
Serratia marcescens = assay: Antimicrobial spectrum (MIC); format: cell-based; conditions: 1% glucose nutrient agar, 37° C, 24 or 48 hours
Pseudomonas aeruginosa = assay: Antimicrobial spectrum (MIC); format: cell-based; conditions: 1% glucose nutrient agar, 37° C, 24 or 48 hours
Brucella abortus = format: cell-based; conditions: blood agar, 37° C, 24 or 48 hours
Candida albicans = assay: Antimicrobial spectrum (MIC); format: cell-based; conditions: Sabouraud dextrose agar, 27° C, 48 hours
Saccharomyces cerevisiae = assay: Antimicrobial spectrum (MIC); format: cell-based; conditions: Sabouraud dextrose agar, 27° C, 48 hours
Tolura rubra = assay: Antimicrobial spectrum (MIC); format: cell-based; conditions: Sabouraud dextrose agar, 27° C, 48 hours
Penicillium glaucum = assay: Antimicrobial spectrum (MIC); format: cell-based; conditions: Sabouraud dextrose agar, 27° C, 48 hours
Aspergillus niger = assay: Antimicrobial spectrum (MIC); format: cell-based; conditions: Sabouraud dextrose agar, 27° C, 48 hours
Aspergillus oryzae = assay: Antimicrobial spectrum (MIC); format: cell-based; conditions: Sabouraud dextrose agar, 27° C, 48 hours
Mucor mucedo = assay: Antimicrobial spectrum (MIC); format: cell-based; conditions: Sabouraud dextrose agar, 27° C, 48 hours
[9] = tested on: Trichophyton mentagrophytes; assay: Antimicrobial spectrum (MIC); format: cell-based; conditions: Sabouraud dextrose agar, 27° C, 72 hours

Substance | antibacterial activity against gram-positive bacteria (gram-positive bacteria) | antibacterial activity against most gram-negative bacteria (gram-negative bacteria) | toxicity [1] | Solubility (Solubility; Water) | MIC [2] | MIC [3] | MIC (Staphylococcus albus) | MIC (Staphylococcus citreus) | MIC [4] | MIC [5] | MIC (Streptococcus salivarius) | MIC (Streptococcus faecalis) | MIC [6] | MIC (Bacillus cereus) | MIC [7] | MIC (Corynebacterium xerosis) | MIC (Lactobacillus arabinosus) | MIC (Nocardia asteoides) | MIC [8] | MIC (Mycobacterium phlei) | other results
chlorocarcin A | mainly show an antibacterial activity | little antibacterial activity | relatively low toxicity | Insoluble | 0.1 µg/mL | 0.02 µg/mL | 0.1 µg/mL | 0.1 µg/mL | 6.25 µg/mL | 50 µg/mL | 6.25 µg/mL | 25 µg/mL | 0.2 µg/mL | 50 µg/mL | 0.003 µg/mL | 0.003 µg/mL | 12.5 µg/mL | 25 µg/mL | 100 µg/mL | 100 µg/mL | Solubility (Solubility; Ethyl ether, esters, chloroform, acetone, alcohols, 0.1N HCl): Easily soluble; Solubility (Solubility; n-hexane, 0.1N NaOH): Sparingly soluble; MIC (Mycobacterium avium): 100 µg/mL; MIC (Escherichia coli): > 100 µg/mL; MIC (Shigella dysenteriae): > 100 µg/mL; MIC (Salmonella typhimurium): > 100 µg/mL; MIC (Klebsiella pneumonaie): 100 µg/mL; MIC (Serratia marcescens): > 100 µg/mL; MIC (Pseudomonas aeruginosa): > 100 µg/mL; MIC (Brucella abortus): > 100 µg/mL; MIC (Candida albicans): > 100 µg/mL; MIC (Saccharomyces cerevisiae): > 100 µg/mL; MIC (Tolura rubra): > 100 µg/mL; MIC (Penicillium glaucum): > 100 µg/mL; MIC (Aspergillus niger): > 100 µg/mL; MIC (Aspergillus oryzae): > 100 µg/mL; MIC (Mucor mucedo): > 100 µg/mL; MIC [9]: 100 µg/mL
chlorocarcin C | mainly show an antibacterial activity | little antibacterial activity | relatively low toxicity | Insoluble | 12.5 µg/mL | 12.5 µg/mL | 50 µg/mL | 25 µg/mL | 6.25 µg/mL | 100 µg/mL | 50 µg/mL | > 100 µg/mL | 25 µg/mL | 50 µg/mL | 0.05 µg/mL | 0.39 µg/mL | 50 µg/mL | 50 µg/mL | > 100 µg/mL | > 100 µg/mL | Solubility (Solubility; Lower alcohols, chloroform, esters, acetone, benzene, ethyl ether): Easily soluble; Solubility (Solubility; n-hexane): Sparingly soluble; MIC (Mycobacterium avium): > 100 µg/mL; MIC (Escherichia coli): > 100 µg/mL; MIC (Shigella dysenteriae): > 100 µg/mL; MIC (Salmonella typhimurium): > 100 µg/mL; MIC (Klebsiella pneumonaie): 50 µg/mL; MIC (Serratia marcescens): > 100 µg/mL; MIC (Pseudomonas aeruginosa): > 100 µg/mL; MIC (Brucella abortus): > 100 µg/mL; MIC (Candida albicans): > 100 µg/mL; MIC (Saccharomyces cerevisiae): > 100 µg/mL; MIC (Tolura rubra): > 100 µg/mL; MIC (Penicillium glaucum): > 100 µg/mL; MIC (Aspergillus niger): > 100 µg/mL; MIC (Aspergillus oryzae): > 100 µg/mL; MIC (Mucor mucedo): > 100 µg/mL; MIC [9]: > 100 µg/mL
